ChEMBL document CHEMBL4619755 (J Nat Prod, 2020)
Activity calls are given as the source filed them. The calls are words filed in the database; no cut-off is given here.

Assays:
THP-1 [1] = assay: Inhibition of TNF-alpha secretion in LPS-stimulated human THP1 cells assessed as TNF-alpha level at 10 uM incubated for 1 hr followed by nigericin addition and measured after 1 hr by ELISA (reference value: 957.6 pg/mL); type: functional
[2] = biological target: NACHT, LRR and PYD domains-containing protein 3 (Homo sapiens) (UniProt Q96P20); assay: Inhibition of NLRP3 inflammasome activation in LPS-stimulated human THP1 cells assessed as reduction in IL-1beta secretion at 10 uM incubated for 1 hr followed by nigericin addition and measured after 1 hr by ELISA relative to control; type: cell-based; conditions: THP-1
[3] = biological target: T1, P2X purinoceptor 7 (Homo sapiens) (UniProt Q99572); assay: Modulation of P2X7 receptor in LPS-stimulated human THP1 cells assessed as LPS-nigericin-stimulated intracellular potassium efflux at 10 uM incubated for 1 hr followed by nigericin challenge and measured after 1 hr by Green-2 AM dye based flow cytometric analysis (reference value: 29%); type: cell-based; conditions: THP-1
T1 sequence (whole entry): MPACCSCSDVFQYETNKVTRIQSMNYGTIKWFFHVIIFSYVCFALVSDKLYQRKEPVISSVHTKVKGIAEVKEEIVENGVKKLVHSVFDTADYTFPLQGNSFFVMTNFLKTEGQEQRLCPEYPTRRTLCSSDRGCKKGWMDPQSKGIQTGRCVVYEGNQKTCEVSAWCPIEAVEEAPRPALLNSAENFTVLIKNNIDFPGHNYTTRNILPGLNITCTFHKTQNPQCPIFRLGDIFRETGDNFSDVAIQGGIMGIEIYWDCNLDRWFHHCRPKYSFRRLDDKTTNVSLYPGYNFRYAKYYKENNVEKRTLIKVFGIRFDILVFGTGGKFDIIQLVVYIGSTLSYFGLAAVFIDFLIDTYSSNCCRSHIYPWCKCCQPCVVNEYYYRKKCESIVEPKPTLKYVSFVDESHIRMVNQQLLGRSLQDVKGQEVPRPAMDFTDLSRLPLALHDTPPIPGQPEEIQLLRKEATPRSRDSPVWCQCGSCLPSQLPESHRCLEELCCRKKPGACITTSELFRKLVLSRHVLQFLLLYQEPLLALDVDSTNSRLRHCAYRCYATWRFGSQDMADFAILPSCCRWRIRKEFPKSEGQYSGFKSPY

[4] = Cytotoxicity against human THP1 cells assessed as cell viability at 10 uM after 24 hrs by CellTiter-Glo luminescent cell viability assay relative to control; type: cell-based; conditions: THP-1 cells, read-out: Activity
THP-1 [5] = assay: Antiinflammatory activity in LPS-induced human THP1 cells assessed as IL-1beta secretion at 10 uM incubated for 1 hr followed by LPS stimulation and measured after 24 hrs by ELISA (reference value: 51.2 pg/mL); type: functional
THP-1 [6] = assay: Antiinflammatory activity in human THP1 cells assessed as reduction in LPS-induced IL-1beta secretion at 0.1 to 10 uM incubated for 1 hr followed by LPS stimulation and measured after 24 hrs by ELISA; type: functional, cell-based
[7] = biological target: T1, P2X purinoceptor 7 (Homo sapiens); assay: Modulation of P2X7 receptor in LPS-stimulated human THP1 cells assessed as LPS-nigericin-stimulated intracellular potassium efflux at 1 uM incubated for 1 hr followed by nigericin challenge and measured after 1 hr by Green-2 AM dye based flow cytometric analysis (reference value: 29%); type: cell-based; conditions: THP-1
THP-1 [8] = assay: Modulation of intracellular calcium release in LPS-stimulated human THP1 cells at 1 to 100 uM incubated for 1 hr followed by nigericin challenge and measured after 1 hr by Fluo-3dye based flow cytometric analysis; type: functional, cell-based
[9] = Cytotoxicity against human THP1 cells assessed as cell viability at 0.1 uM after 24 hrs by CellTiter-Glo luminescent cell viability assay relative to control; type: cell-based; conditions: THP-1 cells, read-out: Activity
[10] = biological target: T1, P2X purinoceptor 7 (Homo sapiens); assay: Modulation of P2X7 receptor in nigericin-stimulated human THP1 cells assessed as intracellular potassium efflux at 10 uM incubated for 30 mins followed by 1 uM nigericin challenge and measured after 30 mins by Green-2 AM dye based flow cytometric analysis (reference value: 27.1%); type: cell-based; conditions: THP-1
[11] = Cytotoxicity against human THP1 cells assessed as cell viability at 0.1 to 100 uM after 24 hrs in presence of LPS by CellTiter-Glo luminescent cell viability assay relative to control; type: cell-based; conditions: THP-1 cells, read-out: Activity
[12] = biological target: T1, P2X purinoceptor 7 (Homo sapiens); assay: Modulation of P2X7 receptor in nigericin-stimulated human THP1 cells assessed as intracellular potassium efflux at 10 uM incubated for 30 mins followed by 10 uM nigericin challenge and measured after 30 mins by Green-2 AM dye based flow cytometric analysis (reference value: 27.1%); type: cell-based; conditions: THP-1
[13] = biological target: NACHT, LRR and PYD domains-containing protein 3 (Homo sapiens) (UniProt Q96P20); assay: Inhibition of NLRP3 inflammasome activation in LPS-stimulated human THP1 cells assessed as reduction in IL-1beta secretion at 1 uM incubated for 1 hr followed by nigericin addition and measured after 1 hr by ELISA relative to control; type: cell-based; conditions: THP-1
[14] = Cytotoxicity against human THP1 cells assessed as cell viability at 1 uM after 24 hrs by CellTiter-Glo luminescent cell viability assay relative to control; type: cell-based; conditions: THP-1 cells, read-out: Activity
[15] = Cytotoxicity against human THP1 cells assessed as cell viability at 100 uM after 24 hrs by CellTiter-Glo luminescent cell viability assay relative to control; type: cell-based; conditions: THP-1 cells, read-out: Activity
[16] = biological target: T1, P2X purinoceptor 7 (Homo sapiens); assay: Modulation of P2X7 receptor in nigericin-stimulated human THP1 cells assessed as intracellular potassium efflux at 10 uM incubated for 30 mins followed by 5 uM nigericin challenge and measured after 30 mins by Green-2 AM dye based flow cytometric analysis (reference value: 27.1%); type: cell-based; conditions: THP-1
[17] = biological target: NACHT, LRR and PYD domains-containing protein 3 (Homo sapiens) (UniProt Q96P20); assay: Inhibition of NLRP3 inflammasome activation in LPS-stimulated human THP1 cells assessed as reduction in IL-1beta secretion at 0.1 uM incubated for 1 hr followed by nigericin addition and measured after 1 hr by ELISA relative to control; type: cell-based; conditions: THP-1

NACHT, LRR and PYD domains-containing protein 3 (Homo sapiens), sequence (Q96P20 whole entry, the tested form may be a part): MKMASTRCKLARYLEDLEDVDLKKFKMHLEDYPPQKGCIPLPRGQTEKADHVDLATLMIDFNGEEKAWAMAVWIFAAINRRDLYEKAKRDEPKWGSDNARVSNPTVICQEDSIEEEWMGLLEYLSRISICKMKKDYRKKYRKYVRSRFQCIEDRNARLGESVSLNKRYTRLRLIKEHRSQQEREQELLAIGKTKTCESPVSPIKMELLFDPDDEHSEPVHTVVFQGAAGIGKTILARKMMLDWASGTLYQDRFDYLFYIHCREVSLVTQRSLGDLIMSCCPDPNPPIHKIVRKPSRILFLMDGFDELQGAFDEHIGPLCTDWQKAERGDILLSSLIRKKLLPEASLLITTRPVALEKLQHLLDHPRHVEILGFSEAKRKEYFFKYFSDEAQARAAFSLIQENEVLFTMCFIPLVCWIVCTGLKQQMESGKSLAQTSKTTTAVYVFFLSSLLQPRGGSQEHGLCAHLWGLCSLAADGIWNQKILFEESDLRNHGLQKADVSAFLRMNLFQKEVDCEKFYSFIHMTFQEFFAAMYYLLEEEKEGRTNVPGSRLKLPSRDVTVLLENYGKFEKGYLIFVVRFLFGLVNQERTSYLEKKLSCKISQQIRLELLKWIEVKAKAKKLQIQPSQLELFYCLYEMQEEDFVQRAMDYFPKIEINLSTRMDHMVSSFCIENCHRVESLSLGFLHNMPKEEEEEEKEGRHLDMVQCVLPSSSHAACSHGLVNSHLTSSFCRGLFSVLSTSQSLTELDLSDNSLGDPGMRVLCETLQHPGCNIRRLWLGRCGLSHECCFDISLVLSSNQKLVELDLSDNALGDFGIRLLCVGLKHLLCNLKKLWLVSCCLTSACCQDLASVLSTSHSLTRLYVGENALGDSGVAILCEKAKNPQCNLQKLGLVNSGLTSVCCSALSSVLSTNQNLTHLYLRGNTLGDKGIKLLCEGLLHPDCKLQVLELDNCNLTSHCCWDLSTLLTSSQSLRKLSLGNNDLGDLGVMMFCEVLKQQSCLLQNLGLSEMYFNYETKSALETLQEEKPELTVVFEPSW

| Compound | Activity (THP-1 [1]) [pg/mL] | inhibition [2] [%] | Activity [3] [%] | viability at 24 h, 10 µM [4] [%] | Activity (THP-1 [5]) [pg/mL] | Activity (THP-1 [6]) | Activity [7] [%] | Activity (THP-1 [8]) | viability at 24 h, 0.1 µM [9] [%] | Activity [10] [%] | viability at 24 h, up to 100 µM [11] [%] | Activity [12] [%] | inhibition [13] [%] | viability at 24 h, 1 µM [14] [%] | viability at 24 h, 100 µM [15] [%] | Activity [16] [%] | inhibition [17] [%] |
| --- | --- | --- | --- | --- | --- | --- | --- | --- | --- | --- | --- | --- | --- | --- | --- | --- | --- |
| CC(C)(O)c1coc(S(=O)(=O)NC(=O)Nc2c3c(cc4c2CCC4)CCC3)c1 | 957.6 |  |  |  |  |  |  |  |  |  |  |  |  |  |  |  |  |
| C=C1C(=O)[C@]23[C@H](O)[C@H]1CC[C@H]2[C@@]12CO[C@]3(O)[C@@H](O)[C@@H]1C(C)(C)CC[C@@H]2O [ORIDONIN] | 777.2 |  |  |  |  |  |  |  |  |  |  |  |  |  |  |  |  |
| C=C(C)[C@@H]1CCC(C)=C[C@H]1c1c(O)cc(CCCCC)cc1O [CANNABIDIOL] | 661.9 | 83.1 | 16 | 103 | 32.9 | inactive | 20 | inactive | 96.5 | 16.1 | > 97 | 12.4 | 64.1 | 97.6 | 99.9 | 13.1 | 63.9 |
